This passage reports Confirmed ligand results from article PMC4412285, “Broadening the repertoire of melanoma-associated T-cell epitopes” (Cancer Immunology, Immunotherapy : CII, 2015).

The first test concerns the target T1, HLA-A3 (Homo sapiens, UniProt P04439).
T1 construct: made in house; host or cells: Escherichia coli
The test can be described thus: MHC ELISA after UV light-mediated peptide exchange. Type of test: binding. More on the design: key: 1 = confirm ed ligand. As to conditions: MHC rescue after UV-induced peptide exchange, absorbance normalized to control ligand HLA-A3/FLU NPILR, selected if above 0.63 and 0.50 of control, respectively, in either of two experiments, duplicates.
Sequence ALLAVGATK [gp100 17-25] displayed a Confirmed ligand of 1. Same read-out and setting: with ALNFPGSQK [gp100 87-95] the figure was 1. Turning to ALVETSYVK [MAGE-A3 277-285], the Confirmed ligand is reported as 1. CVSSKNLMEK [Tyrosinase 24-33] returned a Confirmed ligand of 1. Consider FFAYLTLAK [Tyrosinase 134-142], for which the Confirmed ligand came out at 1. In the case of FLGALDLAK [TRP-2 141-149], the Confirmed ligand came to 1. As for FLLSCLGCK [TRP-2 8-16], the Confirmed ligand was found to be 1. The same measure, in the same setting: with FMGFNCGNCK [Tyrosinase 95-104] the figure was 1; with GTATLRLVK, 1. GTYEGLLRR [TRP-2 301-309]: the Confirmed ligand amounted to 1.

The sequence GVSRQLRTK [gp100 34-42] had a Confirmed ligand of 1. Still for that read-out and setting: in the case of HTMEVTVYH [gp100 182-190] it was 1. IALNFPGSQK [gp100 86-95] gave a Confirmed ligand of 1.

KSYLEQASR [Tyrosinase 465-473] displayed a Confirmed ligand of 1. Still for that read-out and setting: in the case of LLRRNQMGR [TRP-2 306-314] it was 1.

MTVDSLVNK [TRP-2 30-38] had a Confirmed ligand of 1. In turn, NIFDLSAPEK [Tyrosinase 122-131] yielded a Confirmed ligand of 1. On the same count and under the same terms, with QLVLHQILK the figure was 1; with SIFEQWLRR [Tyrosinase 395-403], 1. SLLCRHKRK [Tyrosinase 497-505] showed a Confirmed ligand of 1. Take TVSCQGGLPK [gp100 513-522]: the Confirmed ligand was 1. Same read-out and setting: in the case of VSSKNLMEK [Tyrosinase 25-33] it was 1; in that of VVLASLIYR [gp100 609-617], 1.

A further test concerns the target T2, HLA-B7 (Homo sapiens, UniProt P01889).
T2 construct: made in house; host or cells: Escherichia coli
The test can be described thus: MHC ELISA after UV light-mediated peptide exchange. As to conditions: MHC rescue after UV-induced peptide exchange, absorbance normalized to control ligand HLA-B7/CMV pp65RPH, selected if above 0.70 of control in either of two experiments, duplicates. The class given is binding. Also noted: key: 1 = confirm ed ligand.
As for APAFLPWHRL [Tyrosinase 204-213], the Confirmed ligand stood at 1. The sequence APLGPQFPF [Tyrosinase 63-71] registered a Confirmed ligand of 1. On the same count and under the same terms, in the case of APPLPVPGVL [NY-ESO-1 113-122] it was 1. Same read-out and setting: with APRGPHGGA [NY-ESO-1 60-68] the figure was 1; with APRGPHGGAA [NY-ESO-1 60-69], 1. CPIGENSPL came in with a Confirmed ligand of 1.

Sequence CPIGENSPLL showed a Confirmed ligand of 1. Same read-out and setting: with CPRLGAESA [TRP-2 41-49] the figure was 1. Same read-out and setting: in the case of FPRACVSSK [Tyrosinase 20-28] it was 1; in that of GAAMVGAVL, 1. Still for that read-out and setting: with GPHISYPPL [MAGE-A3 296-304] the figure was 1. For GPNCTERRLL [Tyrosinase 109-118], the Confirmed ligand is 1.

GPRGAGAARA [NY-ESO-1 44-53] came in with a Confirmed ligand of 1. On the same count and under the same terms, with IPLYRNGDF [Tyrosinase 430-438] the figure was 1; with LPEEKQPLL [Tyrosinase 507-515], 1.

In the case of LPEEKQPLLM [Tyrosinase 507-516], the Confirmed ligand is reported as 1. Take LPHSAANDPI [TRP-2 382-391]: the Confirmed ligand was found to be 1. In turn, LPHSSSHWL [gp100 630-638] showed a Confirmed ligand of 1. Same read-out and setting: in the case of LPSPACQLVL it was 1.

LPTTMNYPL [MAGE-A3 71-79] had a Confirmed ligand of 1. On the same count and under the same terms, in the case of MPREDAHFI [Mart1 1-9] it was 1; in that of RAMLGTHTM [gp100 176-184], 1; in that of RAREPVTKA [MAGE-A3 125-133], 1.

RLRKGYTPL [TRP-2 497-505] registered a Confirmed ligand of 1. RLVKRQVPL [gp100 465-473] returned a Confirmed ligand of 1. Still for that read-out and setting: in the case of RPWSGPYIL [TRP-2 69-77] it was 1; in that of SPLLSGQQV [gp100 653-661], 1. Still for that read-out and setting: in the case of SPQEREQFL [TRP-2 134-142] it was 1. Sequence SPQGASSLPT [MAGE-A3 64-73] showed a Confirmed ligand of 1.

Take TPAEVSIVV [gp100 401-409]: the Confirmed ligand worked out at 1. Consider TPAEVSIVVL [gp100 401-410], for which the Confirmed ligand was 1. Take TPEATGMTPA [gp100 394-403]: the Confirmed ligand came out at 1.

As to TPRLPSSAD [Tyrosinase 309-317], the Confirmed ligand was 1. Sequence VIRQNIHSL [TRP-2 125-133] had a Confirmed ligand of 1.

For VPFSVSVSQL [gp100 213-222], the Confirmed ligand came out at 1. On the same count and under the same terms, with VPLAHSSSA [gp100 198-206] the figure was 1; with VPLAHSSSAF [gp100 198-207], 1; with YPEWTEAQRL [gp100 49-58], 1.

The target in a further test is T3, HLA-A11 (Homo sapiens, UniProt P04439, A114D/F33Y/S129P).
T3 construct: made in house; host or cells: Escherichia coli
The test can be described thus: MHC ELISA after UV light-mediated peptide exchange. Type of test: binding. As to conditions: MHC rescue after UV-induced peptide exchange, absorbance normalized to control ligand HLA-A11/EBV EBNA4AVF, selected if above 0.90 of control in either of two experiments, duplicates. Also noted: key: 1 = confirm ed ligand.
AGYNCGDCK [TRP-2 102-110]: the Confirmed ligand stood at 1.

AIFDEWMKR [TRP-2 401-409] yielded a Confirmed ligand of 1.

As for ALLAVGATK [gp100 17-25], the Confirmed ligand amounted to 1.

As for ALNFPGSQK [gp100 87-95], the Confirmed ligand came out at 1.

ALVETSYVK [MAGE-A3 277-285] displayed a Confirmed ligand of 1. The same measure, in the same setting: in the case of CMTVDSLVNK [TRP-2 29-38] it was 1; in that of CVSSKNLMEK [Tyrosinase 24-33], 1; in that of FLLSCLGCK [TRP-2 8-16], 1.

The sequence FMGFNCGNCK [Tyrosinase 95-104] came in with a Confirmed ligand of 1. Same read-out and setting: with FTIPYWDWR [Tyrosinase 231-239] the figure was 1; with GTATLRLVK, 1; with GTQCALTRR [Mart1 65-73], 1.

In the case of GTYEGLLRR [TRP-2 301-309], the Confirmed ligand is given as 1. The sequence GVSRQLRTK [gp100 34-42] gave a Confirmed ligand of 1.

Sequence HTMEVTVYH [gp100 182-190] had a Confirmed ligand of 1. For IALNFPGSQK [gp100 86-95], the Confirmed ligand was 1.

The sequence KISGGPHISY [MAGE-A3 292-301] gave a Confirmed ligand of 1. LLGDNQIMPK [MAGE-A3 189-198] registered a Confirmed ligand of 1. On the same count and under the same terms, in the case of MGFNCGNCK [Tyrosinase 96-104] it was 1; in that of MTVDSLVNK [TRP-2 30-38], 1.

On to MVPFIPLYR [Tyrosinase 426-434], for which the Confirmed ligand is 1.

In the case of NIFDLSAPEK [Tyrosinase 122-131], the Confirmed ligand came out at 1. On the same count and under the same terms, with NQMGRNSMK [TRP-2 310-318] the figure was 1; with PLMETHLSSK [TRP-2 504-513], 1; with QTSAGHFPR [Tyrosinase 14-22], 1. On the same count and under the same terms, in the case of QYFFPVIFSK [MAGE-A3 144-153] it was 1; in that of RALVETSYVK [MAGE-A3 276-285], 1; in that of RTKAWNRQLY [gp100 40-49], 1. The same measure, in the same setting: in the case of SSLPTTMNY [MAGE-A3 69-77] it was 1. On to SVLEVFEGR [MAGE-A3 226-234], for which the Confirmed ligand is 1. Same read-out and setting: in the case of VSCQGGLPK [gp100 514-522] it was 1. Turning to VSSKNLMEK [Tyrosinase 25-33], the Confirmed ligand amounted to 1. The same measure, in the same setting: with VTVYHRRGSR [gp100 186-195] the figure was 1. Turning to VVLASLIYR [gp100 609-617], the Confirmed ligand is 1.

In the case of YMVPFIPLYR [Tyrosinase 425-434], the Confirmed ligand came out at 1.
